Test results as given in patent publication US10710986B2, “PD-1/PD-L1 inhibitors” (Gilead Sciences, Inc., priority 2018, dated 2020).

Each compound was assayed against PD-1/PD-L1 (Homo sapiens (Human), UniProt Q9NZQ7) (assay: PD-1/PD-L1 biochemical protein-protein interaction assay (ALPHA)). Settings: 0.3 nM His tagged PD-L1, 2.5 nM biotinylated Fc-PD-1, 60 minutes at 25° C., read-out: IC50 PD-L1-PD1.
Chain of PD-1/PD-L1 (Q9NZQ7 19-238): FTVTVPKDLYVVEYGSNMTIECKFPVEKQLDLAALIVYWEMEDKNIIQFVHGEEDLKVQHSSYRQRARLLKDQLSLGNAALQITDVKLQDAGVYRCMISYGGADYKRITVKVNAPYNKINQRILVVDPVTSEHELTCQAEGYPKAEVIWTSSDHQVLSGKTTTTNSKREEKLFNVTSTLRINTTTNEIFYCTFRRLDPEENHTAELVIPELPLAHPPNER

IC50 [pM]	Compound
291	COc1nc(-c2cccc(-c3cccc(-c4cnc(CNCC5(O)COC5)c(OC)n4)c3Cl)c2Cl)cnc1CNC[C@@H]1CCC(=O)N1 [compound 589]
290	COc1nc(-c2cccc(-c3cccc(-c4cnc(CN[C@@H](CO)C(N)=O)c(OC)n4)c3Cl)c2Cl)cnc1CNC[C@@H]1CCC(=O)N1 [compound 304]
64	COc1nc(-c2cccc(-c3cccc(-c4cnc(CNC[C@@H]5CCC(=O)N5)c(OC)n4)c3Cl)c2Cl)cnc1CNCCC1CCCO1 (stereo partly drawn) [compound 236]
978	CSc1nc(-c2cccc(-c3cccc(-c4cnc(CNC[C@@H]5CCC(=O)N5)c(SC)n4)c3Cl)c2Cl)cnc1CNC[C@@H]1CCC(=O)N1 [compound 91]
291	COc1nc(-c2cccc(-c3cccc(-c4cnc(CNCCO)c(OC)n4)c3F)c2Cl)ccc1CNCCO [compound 615]
108	COc1nc(-c2cccc(-c3cccc(-c4cnc(CN5CC[C@]6(O)C[C@@H]6C5)c(OC)n4)c3Cl)c2Cl)cnc1CNC[C@@H]1CCC(=O)N1 [compound 482]
70	COc1nc(-c2cccc(-c3cccc(-c4cnc(CN5CCC(c6cnccn6)C5)c(OC)n4)c3Cl)c2Cl)cnc1CNC[C@@H]1CCC(=O)N1 (stereo partly drawn) [compound 404]
82	COc1nc(-c2cccc(-c3cccc(-c4cnc(CN5CC6(C5)CN(C(C)=O)C6)c(OC)n4)c3Cl)c2C)cnc1CN1CC2(C1)CN(C(C)=O)C2 [compound 662]
81	CNc1nc(-c2cccc(-c3cccc(-c4cnc(CN(C)C)c(NC)n4)c3Cl)c2Cl)cnc1CN(C)C [compound 71]
132	COc1nc(-c2cccc(-c3cccc(-c4cnc(CN[C@H]5CNC(=O)C5)c(OC)n4)c3Cl)c2Cl)cnc1CNC[C@H]1CCC(=O)N1 [compound 200]
280	COc1nc(-c2cccc(-c3cccc(-c4cnc(CN5C[C@H]6C[C@H]6[C@H]5CO)c(OC)n4)c3Cl)c2Cl)cnc1CNC[C@@H]1CCC(=O)N1 [compound 187]
2670	COCC(NCc1ncc(-c2cccc(-c3cccc(-c4cnc(CNC[C@@H]5CCC(=O)N5)c(OC)n4)c3Cl)c2Cl)nc1OC)C(F)(F)F (stereo partly drawn) [compound 249]
147	COc1nc(-c2cccc(-c3cccc(-c4cnc(CN5CC6(CCC(=O)N6)C5)c(OC)n4)c3Cl)c2Cl)cnc1CN1CC2(CCC(=O)N2)C1 [compound 136]
64	COc1nc(-c2cccc(-c3cccc(-c4cnc(CN5CC6(CCC(=O)N6)C5)c(OC)n4)c3Cl)c2Cl)cnc1CN [compound 595]
138	COc1nc(-c2cccc(-c3cccc(-c4cnc(CN5CC6(CNC(=O)C6)C5)c(OC)n4)c3Cl)c2Cl)cnc1CN [compound 591]
60	COc1nc(-c2cccc(-c3cccc(-c4cnc(CN5CC(C)(O)C5)c(OC)n4)c3Cl)c2Cl)cnc1CN1CC(C)(O)C1 [compound 147]
554	COc1nc(-c2cccc(-c3cccc(-c4cnc(CNC[C@@H]5CCC(=O)N5)c(OC)n4)c3Cl)c2Cl)cnc1CNCc1ccncc1 [compound 422]
460	COc1nc(-c2cccc(-c3cccc(-c4cnc(CN[C@@H]5CCN(S(C)(=O)=O)C5)c(OC)n4)c3Cl)c2Cl)cnc1CN[C@@H]1CCN(S(C)(=O)=O)C1 [compound 321]
168	COc1nc(-c2cccc(-c3cccc(-c4cnc(CNC[C@@H](O)CC(=O)O)c(OC)n4)c3Cl)c2Cl)cnc1CNC[C@@H](O)CC(=O)O [compound 137]
220	COc1nc(-c2cccc(-c3cccc(-c4cnc(CN[C@@H](C)[C@H]5CCC(=O)N5)c(OC)n4)c3Cl)c2Cl)cnc1CN[C@@H](C)[C@H]1CCC(=O)N1 [compound 317]
69	COc1nc(-c2cccc(-c3cccc(-c4cnc(CN5CC[C@@H](CO)C5)c(OC)n4)c3F)c2Cl)ccc1CN1CC[C@@H](CO)C1 [compound 616]

IC50 [pM]	Compound
370	CNCc1ncc(-c2cccc(-c3cccc(-c4cnc(CN5CCC5)c(NC)n4)c3Cl)c2Cl)nc1NC [compound 73]
89	COc1nc(-c2cccc(-c3cccc(-c4cnc(CN5CC(C(N)=O)C5)c(OC)n4)c3Cl)c2Cl)cnc1CN1CC(C(N)=O)C1 [compound 527]
180	COc1nc(-c2cccc(-c3cccc(-c4cnc(CN5CC[C@H](O)[C@H](F)C5)c(OC)n4)c3Cl)c2Cl)cnc1CNC[C@@H]1CCC(=O)N1 [compound 280]
465	COc1nc(-c2cccc(-c3cccc(-c4cnc(CNC[C@@H]5CC(C)C(=O)N5)c(OC)n4)c3Cl)c2Cl)cnc1CNC[C@@H]1CCC(=O)N1 (stereo partly drawn) [compound 262]
221	COc1nc(-c2cccc(-c3cccc(-c4cnc(CN5CCC[C@@H]5CO)c(OC)n4)c3Cl)c2Cl)cnc1CNC[C@@H]1CCC(=O)N1 [compound 23]
64	COc1nc(-c2cccc(-c3cccc(-c4cnc(CNCC5CCNC5=O)c(OC)n4)c3Cl)c2Cl)cnc1CNCC1CCNC1=O (stereo not drawn) [compound 661]
1870	COc1nc(-c2cccc(-c3cccc(-c4cnc(CNC[C@@H]5CCC(=O)N5)cn4)c3Cl)c2Cl)ccc1CNC[C@@H]1CCC(=O)N1 [compound 440]
173	COc1nc(-c2cccc(-c3cccc(-c4cnc(CN5CC(C)(O)C5)c(OC)n4)c3Cl)c2Cl)cnc1CNC[C@@H]1CCC(=O)N1 [compound 16]
115	COc1nc(-c2cccc(-c3cccc(-c4cnc(CN5C[C@@H](O)[C@@H](O)C5)c(OC)n4)c3Cl)c2Cl)cnc1CNC[C@@H]1CCC(=O)N1 [compound 524]
260	COc1nc(-c2cccc(-c3cccc(-c4cnc(CNC[C@@H]5CCC(=O)N5)c(OC)n4)c3Cl)c2Cl)cnc1CNCCn1ccc(C)n1 [compound 214]
64	COc1nc(-c2cccc(-c3cccc(-c4cnc(CNC[C@H]5C[C@](C)(O)C5)c(OC)n4)c3Cl)c2Cl)cnc1CNC[C@@H]1CCC(=O)N1 [compound 567]
151	COc1nc(-c2cccc(-c3cccc(-c4cnc(CNC5CC(C)(O)C5)c(OC)n4)c3Cl)c2Cl)cnc1CN (stereo not drawn) [compound 592]
182	COc1nc(-c2cccc(-c3cccc(-c4cnc5c(CN6CC7(CCC(=O)N7)C6)cn(C)c5n4)c3Cl)c2Cl)cnc1CN1CC2(CCC(=O)N2)C1 [compound 613]
186	COc1nc(-c2cccc(-c3cccc(-c4cnc(CNCc5cn[nH]c5)c(OC)n4)c3Cl)c2Cl)cnc1CNCc1cn[nH]c1 [compound 456]
64	COc1nc(-c2cccc(-c3cccc(-c4cnc(CN5CC(C)(O)C5)c(OC)n4)c3Cl)c2Cl)cnc1CN1CC[C@@H](CO)C1 [compound 448]
6760	CNc1nc(-c2cccc(-c3cccc(-c4cnc(CN)c(NC)n4)c3Cl)c2Cl)cnc1CN [compound 58]
100	COc1nc(-c2cccc(-c3cccc(-c4cnc(CN5CC(CO)C5)c(OC)n4)c3Cl)c2Cl)cnc1CN1CC(CO)C1 [compound 145]
276	COc1nc(-c2cccc(-c3cccc(-c4cnc(CN5CC6(CNC(=O)C6)C5)c(OC)n4)c3Cl)c2F)ccc1CN1CC2(CNC(=O)C2)C1 [compound 497]
64	COc1nc(-c2cccc(-c3cccc(-c4cnc(C5=NCCN5)c(OC)n4)c3Cl)c2Cl)ccc1CN1CC2(CCC(=O)N2)C1 [compound 641]
389	COc1nc(-c2cccc(-c3cccc(-c4cnc(CN5CC(c6ccccn6)C5)c(OC)n4)c3Cl)c2Cl)cnc1CNC[C@@H]1CCC(=O)N1 [compound 349]
590	COc1nc(-c2cccc(-c3cccc(-c4cnc(CNC56CC(OC)(C5)C6)c(OC)n4)c3Cl)c2Cl)cnc1CNC[C@@H]1CCC(=O)N1 [compound 8]
